Legend:
[1] = biological target: T1, 5-hydroxytryptamine receptor 1A (Homo sapiens, UniProt P08908); experiment: Displacement of [3H]Way100635 from human 5-HT1A receptor expressed in CHO cells measured after 90 mins by microbeta scintillation counting method; format: cell-based
T1 sequence (P08908 whole entry): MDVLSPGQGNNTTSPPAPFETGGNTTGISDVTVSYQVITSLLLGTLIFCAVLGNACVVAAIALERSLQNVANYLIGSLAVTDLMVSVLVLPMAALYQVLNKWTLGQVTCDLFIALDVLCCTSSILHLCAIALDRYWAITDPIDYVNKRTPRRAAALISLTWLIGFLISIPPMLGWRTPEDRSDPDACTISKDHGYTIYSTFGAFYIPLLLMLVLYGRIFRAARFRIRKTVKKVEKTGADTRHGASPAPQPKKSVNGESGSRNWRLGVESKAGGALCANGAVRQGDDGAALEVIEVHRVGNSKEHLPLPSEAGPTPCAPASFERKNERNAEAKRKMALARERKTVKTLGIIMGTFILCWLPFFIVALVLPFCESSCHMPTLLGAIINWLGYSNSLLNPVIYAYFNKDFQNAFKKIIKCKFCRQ

[2] = biological target: 5-hydroxytryptamine receptor 1E (Homo sapiens, UniProt P28566); experiment: Displacement of [3H]5-HT from human 5-HT1E receptor expressed in HEK cells measured after 90 mins by microbeta scintillation counting method; format: cell-based, HEK293
[3] = biological target: 5-hydroxytryptamine receptor 1B (Homo sapiens, UniProt P28222); experiment: Displacement of [3H]5-CT from human 5-HT1B receptor expressed in HEK cells measured after 90 mins by microbeta scintillation counting method; format: cell-based, HEK293
D(1B) dopamine receptor = D(1B) dopamine receptor (Homo sapiens, UniProt P21918); experiment: Displacement of [3H]SCH23390 from human D5 receptor expressed in HEK-T cells measured after 90 mins by microbeta scintillation counting method; format: cell-based
[4] = biological target: Beta-2 adrenergic receptor (Homo sapiens, UniProt P07550); experiment: Displacement of [3H]CGP12177 from human beta2 receptor expressed in HEK Flp-In cells measured after 90 mins by microbeta scintillation counting method; format: cell-based, HEK293
[5] = biological target: Muscarinic acetylcholine receptor M2 (Homo sapiens, UniProt P08172); experiment: Binding affinity to human M2 receptor expressed in CHO cells measured after 90 mins by radioligand binding assay; format: cell-based
[6] = biological target: Muscarinic acetylcholine receptor M1 (Homo sapiens, UniProt P11229); experiment: Binding affinity to human M1 receptor expressed in CHO cells measured after 90 mins by radioligand binding assay; format: cell-based
D(3) dopamine receptor = D(3) dopamine receptor (Homo sapiens, UniProt P35462); experiment: Displacement of [3H]N-methylspiperone from D3 receptor (unknown origin) expressed in HEK-T cells measured after 90 mins by microbeta scintillation counting method; format: cell-based
[7] = biological target: 5-hydroxytryptamine receptor 5A (Homo sapiens, UniProt P47898); experiment: Displacement of [3H]LSD from human 5-HT5A receptor expressed in Flp-In CHO cells measured after 90 mins by microbeta scintillation counting method; format: cell-based
PC-12 = experiment: Selectivity ratio of Ki for sigma2 receptor in rat PC12 cells to Ki for guinea pig sigma1 receptor; format: cell-based
Histamine H3 receptor = Histamine H3 receptor (Homo sapiens, UniProt Q9Y5N1); experiment: Displacement of [3H]alpha-methylhistamine from human H3 receptor expressed in HEK Flp-In cells measured after 90 mins by microbeta scintillation counting method; format: cell-based, HEK293
[8] = biological target: Sigma non-opioid intracellular receptor 1 (Cavia porcellus, UniProt Q60492); experiment: Displacement of [3H]pentazocine from guinea pig sigma1 receptor measured after 90 mins by microbeta scintillation counting method
[9] = biological target: Alpha-1B adrenergic receptor (Homo sapiens, UniProt P35368); experiment: Displacement of [3H]Prazosin from human Alpha1B receptor expressed in HEK-T cells measured after 90 mins by microbeta scintillation counting method; format: cell-based
[10] = biological target: 5-hydroxytryptamine receptor 2C (Homo sapiens, UniProt P28335); experiment: Displacement of [3H]Mesulergine from human 5-HT2C receptor expressed in Flp-IN HEK cells measured after 90 mins by microbeta scintillation counting method; format: cell-based, HEK293
[11] = biological target: Alpha-1D adrenergic receptor (Homo sapiens, UniProt P25100); experiment: Displacement of [3H]Prazosin from human Alpha1D receptor measured after 90 mins by microbeta scintillation counting method
[12] = biological target: Delta-type opioid receptor (Homo sapiens, UniProt P41143); experiment: Displacement of [3H]DADLE from human DOR expressed in HEK cells measured after 90 mins by microbeta scintillation counting method; format: cell-based, HEK293
[13] = biological target: 5-hydroxytryptamine receptor 3A (Homo sapiens, UniProt P46098); experiment: Displacement of [3H]GR65630 from human 5-HT3 receptor expressed in HEK-T cells measured after 90 mins by microbeta scintillation counting method; format: cell-based
[14] = biological target: 5-hydroxytryptamine receptor 1D (Homo sapiens, UniProt P28221); experiment: Displacement of [3H]5-CT from human 5-HT1D receptor expressed in HEK-T cells measured after 90 mins by microbeta scintillation counting method; format: cell-based
[15] = biological target: Muscarinic acetylcholine receptor M4 (Homo sapiens, UniProt P08173); experiment: Binding affinity to human M4 receptor expressed in CHO cells measured after 90 mins by radioligand binding assay; format: cell-based
D(1A) dopamine receptor = D(1A) dopamine receptor (Homo sapiens, UniProt P21728); experiment: Displacement of [3H]SCH23390 from human D1 receptor expressed in HEK-T cells measured after 90 mins by microbeta scintillation counting method; format: cell-based
[16] = biological target: 5-hydroxytryptamine receptor 2A (Homo sapiens, UniProt P28223); experiment: Displacement of [3H]Ketanserin from 5-HT2A receptor (unknown origin) measured after 90 mins by microbeta scintillation counting method
[17] = biological target: Sodium-dependent noradrenaline transporter (Homo sapiens, UniProt P23975); experiment: Displacement of [3H]Nisoxetine from human NET expressed in HEK cells measured after 90 mins by microbeta scintillation counting method; format: cell-based, HEK293
[18] = biological target: 5-hydroxytryptamine receptor 2B (Homo sapiens, UniProt P41595); experiment: Displacement of [3H]LSD from human 5-HT2B receptor expressed in HEK cells measured after 90 mins by microbeta scintillation counting method; format: cell-based, HEK293
[19] = biological target: Sigma non-opioid intracellular receptor 1 (Cavia porcellus) (UniProt Q60492); conditions: 10 uM
[20] = biological target: Muscarinic acetylcholine receptor M3 (Homo sapiens, UniProt P20309); experiment: Binding affinity to human M3 receptor expressed in CHO cells measured after 90 mins by radioligand binding assay; format: cell-based
Histamine H1 receptor = Histamine H1 receptor (Homo sapiens, UniProt P35367); experiment: Displacement of [3H]Pyrilamine from human H1 receptor expressed in HEK cells measured after 90 mins by microbeta scintillation counting method; format: cell-based, HEK293
[21] = biological target: Alpha-2A adrenergic receptor (Homo sapiens, UniProt P08913); experiment: Displacement of [3H]Rauwolscine from human Alpha2A receptor expressed in MDCK cells measured after 90 mins by microbeta scintillation counting method; format: cell-based
[22] = biological target: Sodium-dependent dopamine transporter (Homo sapiens, UniProt Q01959); experiment: Displacement of [3H]WIN35428 from human DAT expressed in HEK cells measured after 90 mins by microbeta scintillation counting method; format: cell-based, HEK293
[23] = biological target: 5-hydroxytryptamine receptor 7 (Homo sapiens, UniProt P34969); experiment: Displacement of [3H]LSD from human 5-HT7 receptor expressed in HEK cells measured after 90 mins by microbeta scintillation counting method; format: cell-based, HEK293
5-hydroxytryptamine receptor 7, sequence (P34969 whole entry): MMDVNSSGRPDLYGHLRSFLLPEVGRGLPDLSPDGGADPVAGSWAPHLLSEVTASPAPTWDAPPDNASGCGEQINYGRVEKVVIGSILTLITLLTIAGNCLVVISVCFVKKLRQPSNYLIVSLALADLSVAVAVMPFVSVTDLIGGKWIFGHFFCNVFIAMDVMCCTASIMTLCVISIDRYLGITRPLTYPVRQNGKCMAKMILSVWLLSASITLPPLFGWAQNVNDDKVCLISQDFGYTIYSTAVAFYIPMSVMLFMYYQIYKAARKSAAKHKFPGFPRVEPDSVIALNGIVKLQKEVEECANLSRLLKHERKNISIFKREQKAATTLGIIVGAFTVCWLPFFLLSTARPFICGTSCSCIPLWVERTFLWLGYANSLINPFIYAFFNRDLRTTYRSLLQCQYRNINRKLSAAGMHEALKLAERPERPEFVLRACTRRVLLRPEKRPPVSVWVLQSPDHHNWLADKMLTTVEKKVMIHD

Histamine H3 receptor, sequence (Q9Y5N1 whole entry): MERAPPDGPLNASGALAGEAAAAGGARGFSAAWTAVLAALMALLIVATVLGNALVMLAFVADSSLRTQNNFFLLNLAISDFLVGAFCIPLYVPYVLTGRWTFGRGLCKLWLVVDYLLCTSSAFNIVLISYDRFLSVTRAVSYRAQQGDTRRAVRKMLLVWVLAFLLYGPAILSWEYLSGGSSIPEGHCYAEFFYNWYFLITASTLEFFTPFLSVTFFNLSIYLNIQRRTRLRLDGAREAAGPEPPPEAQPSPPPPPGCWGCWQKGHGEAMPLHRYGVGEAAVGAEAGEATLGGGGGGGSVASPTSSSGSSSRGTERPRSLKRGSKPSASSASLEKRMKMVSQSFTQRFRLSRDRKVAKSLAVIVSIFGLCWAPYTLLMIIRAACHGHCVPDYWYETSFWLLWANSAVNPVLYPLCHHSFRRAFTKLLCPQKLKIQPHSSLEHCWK
Sodium-dependent dopamine transporter, sequence (Q01959 whole entry): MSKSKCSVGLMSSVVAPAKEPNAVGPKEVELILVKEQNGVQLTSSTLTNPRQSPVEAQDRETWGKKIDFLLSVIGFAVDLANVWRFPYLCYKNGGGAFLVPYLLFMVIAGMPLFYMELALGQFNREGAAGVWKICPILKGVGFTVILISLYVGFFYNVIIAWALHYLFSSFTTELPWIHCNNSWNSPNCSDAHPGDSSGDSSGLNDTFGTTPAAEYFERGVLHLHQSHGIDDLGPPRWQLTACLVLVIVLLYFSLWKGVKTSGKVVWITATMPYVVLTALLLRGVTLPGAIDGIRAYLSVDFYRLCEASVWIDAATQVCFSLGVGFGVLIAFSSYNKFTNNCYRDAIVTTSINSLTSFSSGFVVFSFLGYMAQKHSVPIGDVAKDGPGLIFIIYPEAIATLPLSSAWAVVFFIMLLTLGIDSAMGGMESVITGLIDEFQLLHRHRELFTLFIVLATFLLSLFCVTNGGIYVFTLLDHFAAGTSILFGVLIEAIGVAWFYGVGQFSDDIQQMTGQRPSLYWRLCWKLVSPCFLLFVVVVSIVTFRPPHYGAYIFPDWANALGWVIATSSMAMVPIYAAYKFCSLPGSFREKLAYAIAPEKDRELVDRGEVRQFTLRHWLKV
D(1A) dopamine receptor, sequence (P21728 whole entry): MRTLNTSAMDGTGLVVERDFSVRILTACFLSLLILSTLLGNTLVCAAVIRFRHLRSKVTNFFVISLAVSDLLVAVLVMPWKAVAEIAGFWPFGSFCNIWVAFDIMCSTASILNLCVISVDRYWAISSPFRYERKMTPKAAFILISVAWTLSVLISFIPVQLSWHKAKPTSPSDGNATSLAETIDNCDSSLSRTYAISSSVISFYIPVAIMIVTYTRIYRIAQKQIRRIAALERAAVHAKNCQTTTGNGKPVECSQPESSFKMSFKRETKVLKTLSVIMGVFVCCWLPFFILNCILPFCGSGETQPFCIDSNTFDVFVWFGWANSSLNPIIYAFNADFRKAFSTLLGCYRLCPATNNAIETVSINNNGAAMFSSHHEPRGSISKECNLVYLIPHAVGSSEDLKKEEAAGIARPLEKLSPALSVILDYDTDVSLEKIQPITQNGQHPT
Alpha-2A adrenergic receptor, sequence (P08913 whole entry): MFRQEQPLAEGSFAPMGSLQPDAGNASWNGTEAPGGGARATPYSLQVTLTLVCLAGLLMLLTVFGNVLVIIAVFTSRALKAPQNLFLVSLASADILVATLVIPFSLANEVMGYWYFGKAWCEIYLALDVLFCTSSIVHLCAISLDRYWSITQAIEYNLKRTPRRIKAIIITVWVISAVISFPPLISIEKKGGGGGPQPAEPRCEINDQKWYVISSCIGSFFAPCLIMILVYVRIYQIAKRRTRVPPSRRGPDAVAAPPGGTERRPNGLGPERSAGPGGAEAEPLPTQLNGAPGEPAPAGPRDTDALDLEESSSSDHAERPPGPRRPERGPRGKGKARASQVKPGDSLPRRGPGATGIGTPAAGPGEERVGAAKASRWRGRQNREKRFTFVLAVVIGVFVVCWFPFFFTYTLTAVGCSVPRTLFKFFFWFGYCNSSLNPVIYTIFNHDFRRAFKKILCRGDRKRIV
Muscarinic acetylcholine receptor M4, sequence (P08173 whole entry): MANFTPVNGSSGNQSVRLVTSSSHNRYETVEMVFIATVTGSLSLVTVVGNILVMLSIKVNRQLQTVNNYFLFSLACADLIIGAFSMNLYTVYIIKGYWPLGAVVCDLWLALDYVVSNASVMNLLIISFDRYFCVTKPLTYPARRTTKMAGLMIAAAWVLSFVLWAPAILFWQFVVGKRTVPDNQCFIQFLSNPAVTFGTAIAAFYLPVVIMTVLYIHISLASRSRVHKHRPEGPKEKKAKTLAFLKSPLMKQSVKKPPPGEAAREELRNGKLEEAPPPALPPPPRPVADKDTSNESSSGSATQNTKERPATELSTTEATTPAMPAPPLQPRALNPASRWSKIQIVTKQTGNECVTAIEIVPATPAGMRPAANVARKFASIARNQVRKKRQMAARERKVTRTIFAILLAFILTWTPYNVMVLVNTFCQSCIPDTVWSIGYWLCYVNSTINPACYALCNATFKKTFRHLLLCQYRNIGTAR
Delta-type opioid receptor, sequence (P41143 whole entry): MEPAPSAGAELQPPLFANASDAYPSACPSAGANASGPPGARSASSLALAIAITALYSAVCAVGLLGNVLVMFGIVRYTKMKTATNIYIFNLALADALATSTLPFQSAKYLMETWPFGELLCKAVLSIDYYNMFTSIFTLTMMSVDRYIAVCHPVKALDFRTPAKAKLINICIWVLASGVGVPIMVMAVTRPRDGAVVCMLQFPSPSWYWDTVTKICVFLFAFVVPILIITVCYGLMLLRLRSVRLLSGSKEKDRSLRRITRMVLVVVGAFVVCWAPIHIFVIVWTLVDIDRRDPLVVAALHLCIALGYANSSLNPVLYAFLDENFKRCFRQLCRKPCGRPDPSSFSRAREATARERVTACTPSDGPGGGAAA
5-hydroxytryptamine receptor 2A, sequence (P28223 whole entry): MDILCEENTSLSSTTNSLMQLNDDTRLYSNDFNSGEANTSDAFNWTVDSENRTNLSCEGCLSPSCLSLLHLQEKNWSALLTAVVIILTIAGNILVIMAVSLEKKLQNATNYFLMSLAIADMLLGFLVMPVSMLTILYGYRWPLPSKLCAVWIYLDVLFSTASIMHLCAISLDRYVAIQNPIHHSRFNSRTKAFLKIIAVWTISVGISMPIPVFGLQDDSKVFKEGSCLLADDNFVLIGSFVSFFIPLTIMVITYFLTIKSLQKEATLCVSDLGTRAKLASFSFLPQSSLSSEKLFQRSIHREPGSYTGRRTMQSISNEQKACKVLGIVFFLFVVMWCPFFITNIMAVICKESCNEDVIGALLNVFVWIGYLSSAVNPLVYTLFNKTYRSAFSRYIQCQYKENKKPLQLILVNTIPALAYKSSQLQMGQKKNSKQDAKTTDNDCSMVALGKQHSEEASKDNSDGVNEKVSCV
5-hydroxytryptamine receptor 1B, sequence (P28222 whole entry): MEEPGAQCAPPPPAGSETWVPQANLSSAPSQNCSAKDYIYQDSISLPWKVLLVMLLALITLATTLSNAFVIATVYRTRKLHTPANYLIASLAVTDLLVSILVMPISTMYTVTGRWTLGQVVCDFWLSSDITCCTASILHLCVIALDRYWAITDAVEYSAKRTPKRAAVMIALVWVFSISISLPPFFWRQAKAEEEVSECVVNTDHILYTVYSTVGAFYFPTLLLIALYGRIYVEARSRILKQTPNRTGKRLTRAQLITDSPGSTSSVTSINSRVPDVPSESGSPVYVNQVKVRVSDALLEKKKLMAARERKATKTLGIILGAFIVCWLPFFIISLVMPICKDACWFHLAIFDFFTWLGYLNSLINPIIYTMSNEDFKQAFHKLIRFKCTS
5-hydroxytryptamine receptor 2B, sequence (P41595 whole entry): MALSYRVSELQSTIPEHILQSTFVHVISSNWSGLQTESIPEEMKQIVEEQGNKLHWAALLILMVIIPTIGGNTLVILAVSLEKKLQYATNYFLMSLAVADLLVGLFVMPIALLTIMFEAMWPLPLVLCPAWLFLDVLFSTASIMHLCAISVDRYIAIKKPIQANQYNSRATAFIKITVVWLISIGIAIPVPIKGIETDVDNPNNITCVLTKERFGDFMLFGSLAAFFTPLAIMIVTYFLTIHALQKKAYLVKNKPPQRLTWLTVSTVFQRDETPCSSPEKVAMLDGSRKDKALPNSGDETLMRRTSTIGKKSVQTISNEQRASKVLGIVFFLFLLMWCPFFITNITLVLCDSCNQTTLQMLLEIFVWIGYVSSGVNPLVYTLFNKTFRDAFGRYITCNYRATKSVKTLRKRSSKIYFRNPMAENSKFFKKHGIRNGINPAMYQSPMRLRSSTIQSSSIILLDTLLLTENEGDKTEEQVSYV
Sigma non-opioid intracellular receptor 1, sequence (Q60492 whole entry): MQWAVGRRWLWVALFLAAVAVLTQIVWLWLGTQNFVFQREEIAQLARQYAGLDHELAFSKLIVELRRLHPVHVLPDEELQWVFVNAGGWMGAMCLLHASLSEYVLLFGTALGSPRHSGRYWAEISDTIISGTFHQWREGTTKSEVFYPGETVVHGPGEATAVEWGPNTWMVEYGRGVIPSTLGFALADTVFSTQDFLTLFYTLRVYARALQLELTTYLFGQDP
Sigma non-opioid intracellular receptor 1 (Cavia porcellus), sequence (Q60492 whole entry): as above

SMILES	Ki [1] [µM]	Ki [2] [µM]	Ki [3] [µM]	Ki (D(1B) dopamine receptor) [µM]	Ki [4] [µM]	Ki [5] [µM]	Ki [6] [µM]	Ki (D(3) dopamine receptor) [µM]	Ki [7] [µM]	Ratio Ki (PC-12)	Ki (Histamine H3 receptor) [µM]	Ki [8] [µM]	Ki [9] [µM]	Ki [10] [µM]	Ki [11] [µM]	Ki [12] [µM]	Ki [13] [µM]	Ki [14] [µM]	Ki [15] [µM]	Ki (D(1A) dopamine receptor) [µM]	also measured
CCCN1CC[C@H]2c3cc4ccc(C(F)(F)F)cc4nc3[C@H](CC)[C@H]3CCC[C@@H]1[C@@H]32	> 10	> 10	> 10	> 10	> 10	> 10	> 10	> 10	> 10	0.04	> 10	0.423	> 10	> 10	> 10	> 10	> 10	> 10	> 10	> 10	Ki [16]: > 10 µM; Ki [17]: > 10 µM; Ki [18]: > 10 µM; inhibition [19]: > 50%; Ki [20]: > 10 µM; Ki (Histamine H1 receptor): > 10 µM; Ki [21]: 1.59 µM; Ki [22]: > 10 µM; Ki [23]: > 10 µM
CN1CC[C@H]2CC(=O)[C@H](Cc3ccccc3)[C@H]3CCC[C@@H]1[C@H]23	> 10	> 10	> 10	> 10	> 10	> 10	> 10	> 10	> 10	98.7	0.814	0.0015 to 0.002	> 10	1.68	> 10	> 10	> 10	> 10	> 10	> 10	Ki [16]: > 10 µM; Ki [17]: > 10 µM; Ki [18]: 1.91 µM; inhibition [19]: > 50%; Ki [20]: 0.661 µM; Ki (Histamine H1 receptor): > 10 µM; Ki [21]: > 10 µM; Ki [22]: 2.18 µM; Ki [23]: > 10 µM
